The structures appear in SMILES notation.

In assay [1] the test system is 4th-instar household silkworm larvae. Nature of the assay: Anti-JH Activity Test II: anti-JH activity value (ED50). Type of assay: in vivo, Bombyx mori. The conditions noted are these: 4th-instar larvae, dropwise application. How it is done:
(§1) The compound (test preparation) of the present invention diluted with acetone to the predetermined concentration was applied dropwise, in an amount of 1 to 4 μper larva, to the abdomen and the back of third- or fourth-instar larvae (those living for 0 to 8 hours after ecdysis) of household silkworms (Bombyx mori) raised in a room and fed on mulberry leaves. Immediately after treatment, the larvae were placed into a plastics case and reared by being fed on mulberry leaves until they started spinning cocoons. The anti-JH activity was evaluated in terms of the percentage (%) of presence of larvae (premature larvae) which began to spin cocoons at the 4th-instar stage without undergoing the 5th-instar moult. The test larvae treated with each test preparation in each group numbered 20. The test larvae in the control group treated with acetone in lieu of the test compound all commenced cocooning after the 5th-instar moult.
After the test compound diluted to the predetermined concentration was applied dropwise to 4th-instar household silkworm larvae in the same manner as in Anti-JH Activity Test I as described above, the larvae thus treated were reared until they started cocooning. The number of larvae which began to cocoon at the 4th-instar stage without undergoing the 5th-instar moult were counted to determine the percentage (%) of presence of larvae (premature larvae). Then the concentration of test preparation which induced 50% presence was determined and indicated as an anti-JH activity value (ED50).

In assay [2] the test system is household silkworms (Bombyx mori) larvae. Nature of the assay: Anti-JH Activity Test I: activity to induce premature metamorphosis. The assay is classed as in vivo. How it is done: as §1
In assay [3] the test system is anti-JH activity. Nature of the assay: Inhibition of the anti-JH activity of the compound of Example 1 by methoprene, a JH-active substance. The settings on record: in vivo. How it is done:
Investigation was conducted to determine whether the activity of the foregoing compound of the invention can be inhibited by methoprene which is a JH-active substance. […] [Anti-JH Activity Test II]

Regarding `CC(C)=CCC/C(C)=C/c1cncn1C1CCCCC1` [Example 13, 1-cyclohexyl-5-[(E)-2,6-dimethyl-1,5-heptadienyl]imidazole], the “ED50 (anti-JH activity value, 50% presence of premature larvae)” value in assay [1] came to 6.6 μg/larva.

Turning to `CCC(C)n1cncc1/C=C(\C)CCC=C(C)C` (stereo not drawn) [Example 10, 1-sec-butyl-5-[(E)-2,6-dimethyl-1,5-heptadienyl]imidazole], in assay [1], the “ED50 (anti-JH activity value, 50% presence of premature larvae)” value amounted to 1.9 μg/larva.

Take `CC(C)CCCC(C)Cc1cncn1Cc1ccccc1` (stereo not drawn) [Example 1, 1-benzyl-5-(2,6-dimethylheptyl)imidazole]: the “Activity to induce premature metamorphosis” value is given as 10% in assay [2] (3rd-instar larvae, dosage 0.5 μg/larva); 70% in assay [2] (3rd-instar larvae, dosage 1 μg/larva); 100% in assay [2] (3rd-instar larvae, dosage 2 μg/larva); 20% in assay [2] (4th-instar larvae, dosage 1 μg/larva); 100% in assay [2] (4th-instar larvae, dosage 2 μg/larva); 100% in assay [2] (4th-instar larvae, dosage 10 μg/larva). The “anti-JH activity (in words)” value in assay [2] (conclusion from Table 1) was “had an anti-JH activity”. For the same molecule, in assay [1], the “ED50 (anti-JH activity value, 50% presence of premature larvae)” value was 1.4 μg/larva.

Take `CC(C)=CCC/C(C)=C/c1cncn1C(C)C` [Example 8, 1-isopropyl-5-[(E)-2,6-dimethyl-1,5-heptadienyl]imidazole]: the “ED50 (anti-JH activity value, 50% presence of premature larvae)” value in assay [1] was 6.4 μg/larva.

As for `CCn1cncc1/C=C(\C)CCC=C(C)C` [Example 3, 1-ethyl-5-[(E)-2,6-dimethyl-1,5-heptadienyl]imidazole], in assay [1], the “ED50 (anti-JH activity value, 50% presence of premature larvae)” value was 5.8 μg/larva.

Take `CCCCn1cncc1/C=C(\C)CCC=C(C)C` [Example 5, 1-butyl-5-[(E)-2,6-dimethyl-1,5-heptadienyl]imidazole]: the “ED50 (anti-JH activity value, 50% presence of premature larvae)” value in assay [1] stood at 3.1 μg/larva.

For the molecule `CC(C)=CCC/C(C)=C/c1cncn1CC(C)C` [Example 9, 1-isobutyl-5-[(E)-2,6-dimethyl-1,5-heptadienyl]imidazole], the “ED50 (anti-JH activity value, 50% presence of premature larvae)” value in assay [1] is given as 1.8 μg/larva.

`CCCCCCn1cncc1/C=C(\C)CCC=C(C)C` [Example 7, 1-hexyl-5-[(E)-2,6-dimethyl-1,5-heptadienyl]imidazole]: the “ED50 (anti-JH activity value, 50% presence of premature larvae)” value in assay [1] is on record as 4.2 μg/larva.

For `CCCn1cncc1/C=C(\C)CCC=C(C)C` [Example 4, 1-propyl-5-[(E)-2,6-dimethyl-1,5-heptadienyl]imidazole], the “ED50 (anti-JH activity value, 50% presence of premature larvae)” value in assay [1] amounted to 3.5 μg/larva.

In the case of `CCCCCn1cncc1/C=C(\C)CCC=C(C)C` [Example 6, 1-amyl-5-[(E)-2,6-dimethyl-1,5-heptadienyl]imidazole], in assay [1], the “ED50 (anti-JH activity value, 50% presence of premature larvae)” value is given as 2.4 μg/larva.

Take `CC(C)=CCC/C(C)=C/c1cncn1C` [Example 2, 1-methyl-5-[(E)-2,6-dimethyl-1,5heptadienyl]-imidazole]: in assay [1], the “ED50 (anti-JH activity value, 50% presence of premature larvae)” value turned out to be 17.5 μg/larva.

As to `COC(C)(C)CCC[C@H](C)C/C=C/C(C)=C/C(=O)OC(C)C` (racemic) [methoprene], the “inhibition by methoprene of the activity of the compound of the invention (Example 1)” value in assay [3] is recorded as “completely inhibited”.

With `CC(C)=CCC/C(C)=C/c1cncn1CCC(C)C` [Example 11, 1-isoamyl-5-[(E)-2,6-dimethyl-1,5-heptadienyl]imidazole], in assay [1], the “ED50 (anti-JH activity value, 50% presence of premature larvae)” value is 3.5 μg/larva.

As for `CC(C)=CCC/C(C)=C/c1cncn1C1CCCC1` [Example 12, 1-cyclopentyl-5-[(E)-2,6-dimethyl-1,5-heptadienyl]imidazole], in assay [1], the “ED50 (anti-JH activity value, 50% presence of premature larvae)” value stood at 3.6 μg/larva.

The record behind these values is patent US4812473A, “1,5-Disubstituted imidazoles as inhibitors of juvenile hormone” (Earth Chemical Co., Ltd., priority 1986, dated 1989).
